Results taken from ChEMBL document CHEMBL1150186, “Chemical studies on Mexican plants used in traditional medicine, XV. Sesquiterpene evoninoate alkaloids from Hippocratea excelsa” (J Nat Prod, 1990).
In brackets after ≈: the same amount, converted by molar mass.

Experiments:
MCF7 = assay: Cytotoxicity against human MCF7 cells; assay type: functional; details: read-out: ED50 (the source's name)
HT-29 = assay: Cytotoxicity against human HT-29 cells; assay type: functional; details: read-out: ED50 (the source's name)
[1] = Cytotoxicity against mouse 9PS cells; assay type: functional; details: read-out: ED50 (the source's name)
[2] = Toxicity against brine shrimp; assay type: organism-based; details: artemia, in vivo
A549 = assay: Cytotoxicity against human A549 cells; assay type: functional; details: read-out: ED50 (the source's name)

With CC(=O)OC[C@]12[C@H](OC(C)=O)[C@H](OC(C)=O)C3C(OC(C)=O)[C@@]14O[C@@]3(C)COC(=O)c1cccnc1[C@@H](C)[C@H](C)C(=O)OC([C@H](OC(=O)c1ccc(=O)n(C)c1)[C@@H]2OC(=O)c1ccccc1)[C@]4(C)O (stereo not given in full) [HIPPOCRATEINE] the EC50 (MCF7) was greater than 10 µg/mL, the EC50 (HT-29) was greater than 10 µg/mL and the EC50 [1] was 0.185 µg/mL (≈ 0.193 µM). For the same compound, the LC50 [2] was 212 µg/mL (≈ 221 µM) and the EC50 (A549) was greater than 10 µg/mL.
